# Data from publication PMC7150870 (Toxins, 2020).
# Read-outs that look alike come from different tables or passages of the source. Marks after values point to notes of the source that are not given here.
# Legend:
# HEK293T [1] = assay type: cell-based, human
# HepG2 = assay type: cell-based, human
# RAW 264.7 = assay type: cell-based, mouse
# HEK 293T cells [2] = assay type: cell-based, human
# Caco-2 = assay type: cell-based, human
# HEK293T [3] = assay type: cell-based, human; remark: listed apart in the source
# [4] = test system: HepG2, Caco-2, RAW 264.7, and HEK 293T cells
# HEK293T cells = assay type: cell-based, human; settings: read-out: IC50 halving the HEK293T cells viability
# HEK 293T cells [5] = test system: HEK 293T cells
# [6] = test system: human colon adenocarcinoma HT29 cells; settings: cited from earlier work
# cells = settings: cited from earlier work
molecule,measurement,setting,value
diacetoxyscirpenol [DAS],"combination index, mixture of T-2 (3.87 nM)",HEK293T [1],0.64 ± 0.01 Syn
same,"type of interaction, mixture of T-2 (3.87 nM)",HEK293T [1],0.64 ± 0.01 Syn (key: Syn: Combination index (CI) < 0.9; Add: 0.9 ≤ CI ≤ 1; Ant: CI > 1)
same,IC50,HepG2,13.4 ± 1.79 nM
same,IC50,RAW 264.7,3.66 ± 0.37 nM
same,"combination index, silibinin 0.9 µM",HEK 293T cells [2],1.00 ± 0.04 Add
same,"combination index, silibinin 1.7 µM",HEK 293T cells [2],1.23 ± 0.06 Ant
same,"combination index, silibinin 3.4 µM",HEK 293T cells [2],1.21 ± 0.05 Ant
same,"combination index, silibinin 6.8 µM",HEK 293T cells [2],1.50 ± 0.04 Ant
same,"combination index, silibinin 13.6 µM",HEK 293T cells [2],1.56 ± 0.13 Ant
same,"combination index, silibinin 27.3 µM",HEK 293T cells [2],1.48 ± 0.08 Ant
same,"combination index, silibinin 54.5 µM",HEK 293T cells [2],1.15 ± 0.02 Ant
same,"combination index, silibinin 109.00 µM",HEK 293T cells [2],1.14 ± 0.01 Ant
same,"type of interaction, silibinin 0.9 µM",HEK 293T cells [2],1.00 ± 0.04 Add (key: Syn: Combination index (CI) < 0.9; Add: 0.9 ≤ CI ≤ 1; Ant: CI > 1)
same,"type of interaction, silibinin 1.7 µM",HEK 293T cells [2],1.23 ± 0.06 Ant (key: Syn: Combination index (CI) < 0.9; Add: 0.9 ≤ CI ≤ 1; Ant: CI > 1)
same,"type of interaction, silibinin 3.4 µM",HEK 293T cells [2],1.21 ± 0.05 Ant (key: Syn: Combination index (CI) < 0.9; Add: 0.9 ≤ CI ≤ 1; Ant: CI > 1)
same,"type of interaction, silibinin 6.8 µM",HEK 293T cells [2],1.50 ± 0.04 Ant (key: Syn: Combination index (CI) < 0.9; Add: 0.9 ≤ CI ≤ 1; Ant: CI > 1)
same,"type of interaction, silibinin 13.6 µM",HEK 293T cells [2],1.56 ± 0.13 Ant (key: Syn: Combination index (CI) < 0.9; Add: 0.9 ≤ CI ≤ 1; Ant: CI > 1)
same,"type of interaction, silibinin 27.3 µM",HEK 293T cells [2],1.48 ± 0.08 Ant (key: Syn: Combination index (CI) < 0.9; Add: 0.9 ≤ CI ≤ 1; Ant: CI > 1)
same,"type of interaction, silibinin 54.5 µM",HEK 293T cells [2],1.15 ± 0.02 Ant (key: Syn: Combination index (CI) < 0.9; Add: 0.9 ≤ CI ≤ 1; Ant: CI > 1)
same,"type of interaction, silibinin 109.00 µM",HEK 293T cells [2],1.14 ± 0.01 Ant (key: Syn: Combination index (CI) < 0.9; Add: 0.9 ≤ CI ≤ 1; Ant: CI > 1)
same,IC50,Caco-2,17.7 ± 0.66 nM
same,metabolites found by non-target U-HPLC-MS analysis,Caco-2 cells,"15-monoacetoxyscirpenol, 4-monoacetoxyscirpenol, 7-hydroxy, 8β-hydroxy, and deepoxy-15- monoacetoxyscirpenol"
same,"transepithelial transport, Apical Medium",Caco-2 cells,29.61 ± 0.87^abc %
same,"transepithelial transport, Basolateral Medium",Caco-2 cells,40.12 ± 0.50^f %
same,"transepithelial transport, Caco-2 Cells",Caco-2 cells,0.02 ± 0.00^a %
same,"transepithelial transport, Raw 264.7 Cells",Caco-2 cells,0.02 ± 0.00^a %
same,"transepithelial transport, Total",Caco-2 cells,69.77 ± 0.99^cd %
same,IC50,HEK293T [3],6.58 ± 0.36 nM
same,IC50,[4]; read-out: IC50 range in studied cells,3.66 to 17.7 nM
same,IC50,HEK293T cells,15 nM
"COc1cc(O)c2c(=O)oc3cc(O)cc(C)c3c2c1 [AME, alternariol-9-methyl ether]","combination index, mixture of DAS (6.58 nM)",HEK293T [1],0.90 ± 0.05 Add
same,"combination index, mixture of HT-2 (21.22 nM)",HEK293T [1],0.92 ± 0.06 Add
same,"combination index, mixture of T-2 (3.87 nM)",HEK293T [1],0.97 ± 0.07 Add
same,"type of interaction, mixture of DAS (6.58 nM)",HEK293T [1],0.90 ± 0.05 Add (key: Syn: Combination index (CI) < 0.9; Add: 0.9 ≤ CI ≤ 1; Ant: CI > 1)
same,"type of interaction, mixture of HT-2 (21.22 nM)",HEK293T [1],0.92 ± 0.06 Add (key: Syn: Combination index (CI) < 0.9; Add: 0.9 ≤ CI ≤ 1; Ant: CI > 1)
same,"type of interaction, mixture of T-2 (3.87 nM)",HEK293T [1],0.97 ± 0.07 Add (key: Syn: Combination index (CI) < 0.9; Add: 0.9 ≤ CI ≤ 1; Ant: CI > 1)
same,percentage of DNA in comet tail with respect to the negative control,HEK 293T cells [5],significantly increased
same,comet tails (percentage of DNA),"HEK 293T cells [5]; 25 µM, 24 h",~42%
same,metabolites found by non-target U-HPLC-MS analysis,Caco-2 cells,"3-O-glucuronide, 7-O-glucuronide, and 3-O-sulfate"
same,"transepithelial transport, Apical Medium",Caco-2 cells,35.92 ± 1.53^c %
same,"transepithelial transport, Basolateral Medium",Caco-2 cells,17.68 ± 0.86^bcd %
same,"transepithelial transport, Caco-2 Cells",Caco-2 cells,0.49 ± 0.02^ab %
same,"transepithelial transport, Raw 264.7 Cells",Caco-2 cells,0.01 ± 0.00^ab %
same,"transepithelial transport, Total",Caco-2 cells,53.94 ± 1.59^bc %
same,concentrations significantly increasing the rate of DNA breaks,[6],≥ 1000 nM
same,IC50,[4],> 50 nM
same,concentration with statistically significant decrease in viability of cells,cells,25 µM
enniatin A [ENN-A],"combination index, mixture of DAS (6.58 nM)",HEK293T [1],0.83 ± 0.05 Syn
same,"combination index, mixture of HT-2 (21.22 nM)",HEK293T [1],0.80 ± 0.06 Syn
same,"combination index, mixture of T-2 (3.87 nM)",HEK293T [1],0.86 ± 0.07 Syn
same,"type of interaction, mixture of DAS (6.58 nM)",HEK293T [1],0.83 ± 0.05 Syn (key: Syn: Combination index (CI) < 0.9; Add: 0.9 ≤ CI ≤ 1; Ant: CI > 1)
same,"type of interaction, mixture of HT-2 (21.22 nM)",HEK293T [1],0.80 ± 0.06 Syn (key: Syn: Combination index (CI) < 0.9; Add: 0.9 ≤ CI ≤ 1; Ant: CI > 1)
same,"type of interaction, mixture of T-2 (3.87 nM)",HEK293T [1],0.86 ± 0.07 Syn (key: Syn: Combination index (CI) < 0.9; Add: 0.9 ≤ CI ≤ 1; Ant: CI > 1)
same,concentration with statistically significant decrease in viability of cells,cells,1 µM
